# Test results taken from patent US4716238A, “Chromene derivatives useful as insecticides” (Alkaloida Vegyeszeti Gyar, priority 1983, dated 1987).
# Where two headings read alike, the source gives them in different places.
# Tests used:
# [1] = test system: insects; conditions: prior art; cited from earlier work
# [2] = test system: domestic fly; test: Domestic fly test (larvae on treated nutrient medium); format: in vivo; conditions: Musca domestica
# Method: domestic fly (Musca domestica)
# The fly larvae are grown on a nutrient medium of the following composition: 2 ml of milk; 2 ml of water; 2 g of wheat bran; 0.1 ml of saturated alcoholic nipagin solution.
# The nutrient medium is filled into cylindrical glass vials (30×100 mm) and 25 fly larvae are raised in each vial. The test compound is dissolved in milk; the end concentration (related to milk) amounts to 0.1% which corresponds to 0.05% (related to the total nutrient medium). The solution of the active ingredient is admixed with the nutrient medium whereupon […] of domestic fly larvae of the I. stage are placed into each vial and the vials are closed with a hard cotton-wool stopper. The nymphs emerging from the larvae are collected in each vial, counted and kept in a petri dish (diameter 25 mm) until flies hatch from the nymphs. The hatched flies are counted.
# [3] = test system: cabbage butterfly; test: Cabbage butterfly test (sprayed cabbage seedlings, II. stage larvae); format: in vivo; conditions: Pieris brassicae, 50 EC composition; for mortality at 0.1 % / survival at 0.1 %: concentration 0.1%; for mortality at 0.1 % / mortality at 0.01 %: read-out: Killing rate of larvae; for mortality at 0.01 % / survival at 0.01 %: concentration 0.01%
# Method: cabbage butterfly (Pieris brassicae)
# From the 50 EC of the test compound a dilution series is prepared with water and the host seedlings (cabbage) are sprayed with this composition until the spray runs down. The spray is allowed to dry whereupon 20 young larvae of the II. stage are placed on each treated plant and the seedlings are kept under so-called "long-day" illumination (18 hours of illumination and 6 hours of darkness). The nibbled plants are replaced by similarly sprayed plants if necessary. The killing rate of the insects, the growth rate of the larvae and the morphological deformations of the surviving nymphs and adults are registered.
# In the 50 EC compositions P1 and test compound 1 are used in a concentration of 0.01%, and the other active ingredients in a concentration of 0.1%.
# [4] = test system: mustard beetle; test: Mustard beetle test; format: in vivo; conditions: Phaedon cochleariae; concentration 1%; control 100%; read-out: Survival of adults
# Method: Two weeks old mustard seedlings are sprayed with a solution of 0.1 g of the test compound, 0.5 ml of dimethyl sulfoxide, and 10 μl of 50 EC composition in 10 ml of water. After the spray is dried, 20 mustard larvae of the II. stage are placed on each plant. The sprayed plants are changed every second day. The evaluation is based on the number of imagos hatching from the nymphs.
# [5] = test system: cotton bug; test: Cotton bug test (topical application on larvae of II. stage); format: in vivo, Dysdercus fasciatus
# Method: cotton bug (Dysdercus fasciatus) A dilution series is prepared from the test compound with acetone, and 0.2 μl of each dilution is topically applied onto the back part of larvae of the II. stage of growth with the aid of a Hamiltion syringe. The active ingredient is absorbed through the cuticula. The animals are kept in a large glass and fed with cotton grains and water. After adult shedding the surviving insects are observed for eventual adultoid symptoms, the egg-reproduction and the development of the ovules is evaluated too. (Remark: in the cotton bug test 50 insects are used). In each Table the control value are disclosed too.
# [6] = test system: Caenorhabditis elegans adult nematodes; test: Nematocidal effect on Caenorhabditis elegans adult nematodes; format: in vivo; conditions: for Size of descendant population: control normal; for mortality at 200 µg/mL / mortality at 400 µg/mL: Caenorhabditis elegans, read-out: Lethality
# Method: Caenorhabditis elegans 0.5 ml of the acetonous solution of the test compound is applied onto a NGM agar plate free from bacteria in a Petri dish. After the acetone was dried 25-30 young adults are placed on the plate. After 24 hours the surviving and killed […] are counted.
smiles,measurement,setting,value
"COc1cc2c(cc1OC(C)C)OC(C)(C)C=C2 [6-methoxy-7-isopropoxy-2,2-dimethyl-chromene]",activity relative to natural P1 and P2,[1],considerably more active than natural P1 and P2
Cc1cc(OC2CCCC2)cc2c1C=CC(C)(C)O2 [Compound 22],survival at 0.1 %,"[2]; read-out: Survival, adult",31.8%
same,survival at 0.1 %,"[2]; read-out: Survival, nymph",52.7%
same,mortality at 0.1 %,[3],100%
CCCOc1ccc2c(c1)OC(C)(C)C=C2 [Compound 1],mortality at 0.01 %,[3],52%
same,survival at 0.01 %,"[3]; read-out: Survival, adult",39%
same,survival at 0.01 %,"[3]; read-out: Survival, nymph",48%
"CCCOc1ccc2c(c1OC)OC(C)(C)C=C2 [Compound 88, 7-n-propoxy-8-methoxy-2,2-dimethyl-2H-chromene]",survival at 0.1 %,"[2]; read-out: Survival, adult",0%
same,survival at 0.1 %,"[2]; read-out: Survival, nymph",12.7%
same,mortality at 0.1 %,[3],100%
same,survival at 1 %,[4],45%
CCC(C)Oc1cc2c(cc1OC)C=CC(C)(C)O2 (stereo not drawn) [Compound 66],AJH effect,[5],0.1 μg/insect
same,LD50,[5],0.4 μg/insect
"COc1c(OCC(C)C)ccc2c1OC(C)(C)C=C2 [Compound 91, 7-isobutoxy-8-methoxy-2,2-dimethyl-2H-chromene]",mortality at 0.1 %,[3],93%
same,survival at 0.1 %,"[3]; read-out: Survival, adult",7%
same,survival at 0.1 %,"[3]; read-out: Survival, nymph",7%
CCC(C)Oc1cc(OC)c2c(c1)OC(C)(C)C=C2 (stereo not drawn) [Compound 109],mortality at 0.1 %,[3],100%
"COc1cc(OCC(C)C)cc2c1C=CC(C)(C)O2 [Compound 110, 5-methoxy-7-isobutoxy-2,2-dimethyl-2H-chromene]",survival at 0.1 %,"[2]; read-out: Survival, adult",0%
same,survival at 0.1 %,"[2]; read-out: Survival, nymph",0%
same,mortality at 0.1 %,[3],100%
CCCOc1cc(OC)c2c(c1)OC(C)(C)C=C2 [Compound 107],survival at 0.1 %,"[2]; read-out: Survival, adult",6.4%
same,survival at 0.1 %,"[2]; read-out: Survival, nymph",9.1%
same,mortality at 0.1 %,[3],88%
same,survival at 0.1 %,"[3]; read-out: Survival, adult",12%
same,survival at 0.1 %,"[3]; read-out: Survival, nymph",12%
CCOc1cc(C)c2c(c1)OC(C)(C)C=C2 [Compound 17],survival at 0.1 %,"[2]; read-out: Survival, adult",14.8%
same,survival at 0.1 %,"[2]; read-out: Survival, nymph",40%
same,mortality at 0.1 %,[3],81%
same,survival at 0.1 %,"[3]; read-out: Survival, adult",19%
same,survival at 0.1 %,"[3]; read-out: Survival, nymph",19%
"CCOc1cc2c(cc1OC)C=CC(C)(C)O2 [Compound P3, 6-methoxy-7-ethoxy-2,2-dimethyl-2H-chromene, reference compound]",Size of descendant population,[6]; 200 μg/ml,some descendants
same,Size of descendant population,[6]; 400 μg/ml,no descendants
same,mortality at 200 µg/mL,[6]; 24 h,70%
same,mortality at 400 µg/mL,[6]; 24 h,90%
same,activity relative to natural P1 and P2,[1],considerably more active than natural P1 and P2
"COc1ccc2c(c1)OC(C)(C)C=C2 [Compound P1, reference compound]",survival at 0.1 %,"[2]; 0.1% related to milk (0.05% of total nutrient medium), control 100%, read-out: Survival, adult",33.3%
same,survival at 0.1 %,"[2]; 0.1% related to milk (0.05% of total nutrient medium), control 100%, read-out: Survival, nymph",100%
same,mortality at 0.01 %,[3],41%
same,survival at 0.01 %,"[3]; read-out: Survival, adult",50%
same,survival at 0.01 %,"[3]; read-out: Survival, nymph",59%
same,Size of descendant population,[6]; 200 μg/ml,reduced
same,Size of descendant population,[6]; 400 μg/ml,no descendants
same,mortality at 200 µg/mL,"[6]; 200 μg/ml, 24 hours",44%
same,mortality at 400 µg/mL,"[6]; 400 μg/ml, 24 hours",98%
Cc1cc(OCC(C)C)cc2c1C=CC(C)(C)O2 [Compound 21],survival at 0.1 %,"[2]; read-out: Survival, adult",25.5%
same,survival at 0.1 %,"[2]; read-out: Survival, nymph",45.7%
same,mortality at 0.1 %,[3],100%
same,survival at 1 %,[4],27%
